According to patent US20160015770A1, “COMPOSITIONS FOR TREATMENT OF RETINAL DETACHMENT” (THE REGENTS OF THE UNIVERSITY OF MICHIGAN, priority 2013, published 2016):
Entries after “also recorded” stand apart in the source; their conditions may differ.

Legend:
661W cells = assay: Western blot of autophagy markers LC3-II and Atg5-12 in 661W cells treated with Fas activating antibody; type: cell-based, mouse; set-up: presence of LC3-II and Atg5-12 over time (prolongation of autophagy): dose or concentration left out as unconfirmed; conditions: Fas activation
Description: The 661W photoreceptor cell line was generously provided by Dr. Muayyad Al-Ubaidi (Department of Cell Biology, University of Oklahoma Health Sciences Center, Oklahoma City, Okla.). The 661W cell line was maintained in Dulbecco's modified Eagle's medium containing 10% fetal bovine serum, 300 mg/L glutamine, 32 mg/L putrescine, 40 μL/L β-mercaptoethanol, and 40 μg/L of both hydrocortisone 21-hemisuccinate and progesterone. The media also contained penicillin (90 units/mL) and streptomycin (0.09 mg/mL). Cells were grown at 37° C. in a humidified atmosphere of 5% CO2 and 95% air. Retinas from experimental eyes with detachment (detached portion of retina only) and control eyes without detachment were dissected from the RPE-choroid, homogenized, and lysed in buffer containing 10 mM HEPES (pH 7.6), 0.5% […], 42 mM KCl, 1 mM phenylmethylsulfonyl fluoride, 1 mM EDTA, 1 mM EGTA, 1 mM dithiothreitol, 5 mM MgCl2, and one tablet of protease inhibitors per 10 mL buffer (Complete Mini; Roche Diagnostics GmbH, Madison, Wis.). 661W cells were plated at 150,000 cells per well in six-well culture dishes in growth media. […] The protein concentration of the supernatant was then determined (DC Protein Assay kit; Bio-Rad Laboratories, Hercules, Calif.). The protein samples were separated on SDS-polyacrylamide gels (Tris-HCl Ready Gels; Bio-Rad Laboratories). […]

detached retina = assay: Experimental retinal detachment, western blot of autophagy markers (Atg5, Atg5-12, LC3-II) in retina; type: in vivo; conditions: rat, 0.2 μg subretinal at time of detachment, 7 days, vs detached retinas alone
Description: All experiments were performed in accordance with the ARVO Statement for the Use of Animals in Ophthalmic and Vision Research and the guidelines established by the University Committee on Use and Care of Animals of the University of Michigan. Detachments were created in adult male Brown-Norway rats (300-400 g; Charles River Laboratories, Wilmington, Mass.) as described previously. Briefly, rodents were anesthetized with a 50:50 mix of ketamine/xylazine, and pupils were dilated with topical phenylephrine (2.5%) and tropicamide (1%). A 20-gauge microvitreoretinal blade was used to create a sclerotomy 2 mm posterior to the limbus, carefully avoiding lens damage. A subretinal injector (Glaser, 32-gauge tip; BD Ophthalmic Systems, Franklin Lakes, N.J.) was introduced through the sclerotomy into the vitreous cavity and then through a peripheral retinotomy into the subretinal space. Sodium hyaluronate (10 mg/mL, Healon OVD; Abbott Medical Optics, Uppsala, Sweden) was slowly injected to detach the neurosensory retina from the underlying RPE. In all experiments, approximately one third to one half of the neurosensory retina was detached. Detachments were created in the left eye. The right eye served as the control, with all the steps of the procedure performed except for introduction of the subretinal injector and injection of the sodium hyaluronate. […]
Retinas from experimental eyes with detachment (detached portion of retina only) and control eyes without detachment were dissected from the RPE-choroid, homogenized, and lysed in buffer containing 10 mM HEPES (pH 7.6), 0.5% IgEPal, 42 mM KCl, 1 mM phenylmethylsulfonyl fluoride, 1 mM EDTA, 1 mM EGTA, 1 mM dithiothreitol, 5 mM MgCl2, and one tablet of protease inhibitors per 10 mL buffer (Complete Mini; Roche Diagnostics GmbH, Madison, Wis.). […] The protein concentration of the supernatant was then determined (DC Protein Assay kit; Bio-Rad Laboratories, Hercules, Calif.). The protein samples were separated on SDS-polyacrylamide gels (Tris-HCl Ready Gels; Bio-Rad Laboratories). […]

SMILES: CCCC[C@@H](C=O)NC(=O)[C@H](CC(C)C)NC(=O)OCc1ccccc1 [calpeptin]
- dose at which LC3-II and Atg5-12 peaked (dose response for increasing autophagy) (661W cells; 24 hours): 25 µM
- presence of LC3-II and Atg5-12 over time (prolongation of autophagy) (661W cells; various lengths of time, calpeptin as printed, vs Fas activation alone / DMSO): lasted for an extended period of time; also recorded: elongated presence of LC3-II and Atg5-12
- Atg5 level in retina (detached retina): increase in Atg5; also recorded: significantly more Atg5
